Laboratory results reported in patent publication US7468391B2, “Methods for treating retinoid responsive disorders using selective inhibitors of CYP26A and CYP26B” (Allergan, Inc., priority 2003, dated 2008).

What was measured:
RAR β [1] = target: T1, RAR β (Homo sapiens, UniProt P10826); test: RAR β Kd; assay type: binding; conditions: Table 3
T1 sequence (P10826 1-455): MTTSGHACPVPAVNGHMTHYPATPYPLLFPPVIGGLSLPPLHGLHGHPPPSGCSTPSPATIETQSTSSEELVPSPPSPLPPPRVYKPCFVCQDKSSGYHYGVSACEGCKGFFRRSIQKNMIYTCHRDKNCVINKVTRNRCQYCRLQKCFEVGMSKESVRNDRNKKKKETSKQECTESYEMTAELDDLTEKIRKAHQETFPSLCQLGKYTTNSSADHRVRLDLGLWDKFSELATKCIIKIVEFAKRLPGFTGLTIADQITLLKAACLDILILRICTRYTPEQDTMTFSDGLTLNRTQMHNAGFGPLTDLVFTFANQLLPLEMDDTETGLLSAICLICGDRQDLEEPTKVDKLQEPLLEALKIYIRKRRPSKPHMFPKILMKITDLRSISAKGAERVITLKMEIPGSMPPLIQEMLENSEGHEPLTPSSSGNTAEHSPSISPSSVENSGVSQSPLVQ

RAR γ = target: T2, RAR γ (Homo sapiens, UniProt P13631); test: RAR γ Kd; assay type: binding; conditions: Table 3
T2 sequence (P13631 1-454): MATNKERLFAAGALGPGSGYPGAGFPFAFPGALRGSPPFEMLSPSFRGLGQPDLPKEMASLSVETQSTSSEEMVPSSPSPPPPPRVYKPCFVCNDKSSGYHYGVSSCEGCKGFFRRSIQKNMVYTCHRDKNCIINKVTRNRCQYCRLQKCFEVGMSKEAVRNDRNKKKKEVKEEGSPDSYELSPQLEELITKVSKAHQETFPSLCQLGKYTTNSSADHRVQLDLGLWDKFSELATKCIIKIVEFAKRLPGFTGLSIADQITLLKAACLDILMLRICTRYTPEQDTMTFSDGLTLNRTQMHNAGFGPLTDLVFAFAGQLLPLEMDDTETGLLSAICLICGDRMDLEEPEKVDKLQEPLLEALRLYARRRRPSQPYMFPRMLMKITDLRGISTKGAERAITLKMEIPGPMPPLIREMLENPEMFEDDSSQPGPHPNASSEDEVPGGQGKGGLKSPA

[2] = system: hamster flank organ sebaceous gland; test: Hamster flank organ sebaceous gland differentiation (model for acne); assay type: in vivo, male golden syrian hamsters; conditions: compared with 13-cis retinoic acid (30 mg/kg), FIG. 3
Procedure: Differentiation of hamster flank organ sebaceous gland is a model system for development of acne. To determine the effectiveness of selective CYP26B inhibitors for treating acne, such inhibitors were tested in this model system. To confirm that this model system can predict the effectiveness of a compound in reducing acne, 13-cis retinoic acid (acutane) was used as a positive control.
For the hamster model system, male golden syrian hamsters were fed LabDiet#5002 rodent diet and housed individually on a 14/10 hr light/dark cycle. For treatment, the animals were randomized according to body weight and they were also weighed at each treatment so that the drug doses could be adjusted accordingly. The animals were treated daily by oral gavage, 6 days/week for 4 weeks. At the end of treatments, the animals were sacrificed by carbon dioxide inhalation. The flank organs were then excised and spread on a small piece of index card which was placed in a histology cassette for fixation in 10% buffered formaldehyde. The specimen was divided into 5 equally spaced portions to make paraffin blocks and one 5-micrometer H&E sections was prepared from each block. The two sections that contained the most sebaceous glands were used to determine the average acini area of the flank organ. A video camera attached to a standard microscope with the 4× objective was used to capture the images of the sebaceous glands. Computer programs Videoshop and NIH Image 1.63 were used to quantify the acini areas. All the recognizable sebaceous glands in the two sections were analyzed and the means were derived for comparison among various treatments. In all studies, blood samples were also collected for determining the levels of serum triglyceride using a triglyceride GPO Trinder kit from Sigma Chemicals (St. Louis, Mo.).

RAR β [3] = target: T1, RAR β; test: RAR β EC50/(efficacy); assay type: cell-based; conditions: Table 3
RAR α = target: T3, RAR α (Homo sapiens, UniProt P10276); test: RAR α Kd; assay type: binding; conditions: Table 3
T3 sequence (P10276 1-462): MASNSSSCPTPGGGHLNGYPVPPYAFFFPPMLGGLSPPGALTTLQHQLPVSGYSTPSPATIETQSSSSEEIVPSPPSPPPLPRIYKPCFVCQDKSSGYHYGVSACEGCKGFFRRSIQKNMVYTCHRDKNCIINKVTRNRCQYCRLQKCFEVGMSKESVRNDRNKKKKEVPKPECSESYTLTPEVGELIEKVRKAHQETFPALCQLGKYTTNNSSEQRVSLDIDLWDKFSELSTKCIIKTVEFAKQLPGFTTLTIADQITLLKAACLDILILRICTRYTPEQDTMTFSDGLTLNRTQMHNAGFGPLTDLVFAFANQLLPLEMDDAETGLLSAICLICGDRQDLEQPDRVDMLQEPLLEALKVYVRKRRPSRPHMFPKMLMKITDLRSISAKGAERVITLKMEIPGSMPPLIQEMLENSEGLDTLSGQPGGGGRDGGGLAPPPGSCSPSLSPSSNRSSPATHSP

| SMILES | Kd (RAR β [1]) | Kd (RAR γ) | hamster flank sebaceous gland differentiation ([2]; 50 mg/kg) | RAR β (EFFICACY) (RAR β [3]) | Kd (RAR α) | hamster flank sebaceous gland differentiation ([2]; 12.5 mg/kg) |
| --- | --- | --- | --- | --- | --- | --- |
| CN(C1CC1)C1CCC(C)(C)c2cc(C#Cc3ccc(C(C)(C)C(=O)O)cc3)ccc21 (stereo not shown) [AGN 198790] | > 10 µM | > 10 µM | reduced hamster flank sebaceous gland differentiation at least as effectively as 13-cis retinoic acid | < 5 | > 10 µM |  |
| CN(Cc1cccc(C#Cc2ccc(/C=C/C(=O)O)cc2)c1)C1CC1 [AGN 199713] | > 10 µM | > 10 µM |  | 25 | > 10 µM | reduced hamster flank sebaceous gland differentiation at least as effectively as 13-cis retinoic acid |
